Test [1] deals with S6 (serine 235 and 236) phosphorylation in AN3CA tumor. The test can be described thus: S6 phosphorylation inhibition assay in xenograft. It counts as in vivo, female nude mouse. As to conditions: Mus musculus, AN3-CA, oral, 6 hr after dosing. On the procedure:
A tumor section was prepared from a human endometrial cancer cell strain AN3CA tumor mass formed in a female nude mouse as subcutaneously transplanted tumor and a xenograft model was prepared by subcutaneously transplanting the tumor to a female nude mouse. The test compound at a predetermined concentration was orally administered. After a predetermined time, the anesthetized mouse was exsanguinated to death, and a tumor mass was isolated. The tumor mass was crushed using a lysis buffer containing inhibitors of proteases and dephosphorylating enzymes (Cell Signaling Technology, Inc.) and the supernatant was separated by centrifugation to obtain a tumor extract. The protein content of the tumor extract was measured using DC Protein Assay Kit (Bio-Rad Laboratories, Inc.) and phosphorylation conditions of Akt (threonine 308) and S6 (serine 235 and 236) were analyzed by a usual technique of western blotting using tumor extracts containing the same amount of protein. The primary antibody and the secondary antibody used for detecting each molecule were rabbit anti-phospho-Akt(T308) antibody and HRP-labeled goat anti-rabbit IgG antibody or mouse anti-phospho-S6(S235/236) antibody and HRP-labeled sheep anti-mouse IgG antibody.
The signal intensity detected using an image analyzer Typhoon 9400 (GE Healthcare) was quantified, and the phosphorylation inhibition rate (%) was calculated by the following formula. Phosphorylation inhibitory activity (%) of Akt and S6 after treatment with test compound=100−100×(B/A) A: Signal intensity derived from phosphorylated protein in tumor mass isolated from mouse untreated with test compound B: Signal intensity derived from phosphorylated protein in tumor mass isolated from mouse treated with test compound

The test system of test [2] is human ovary cancer cell strain IGROV1. The experiment in a line: Cell growth inhibition test (MTT), IGROV1. It counts as cell-based. The settings on record: IGROV-1, 72 h, IGROV1, 3 days culture, read-out: concentration exhibiting anti-cell effect (GI50). The essentials: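 Each cell strain is exposed to serially diluted compound for 3 days (37° C, 5% CO2), added one day after seeding at 5000 (AN3CA, HT29) or 1000 (IGROV1) cells/well. Living cells are quantified by MTT reduction over 4 h, absorbance at 540 nm, giving GI50 at 50% growth rate.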

The next test addresses PI3Kα (Homo sapiens, UniProt P42336). The experiment in a line: PI3K kinase activity inhibition assay. It counts as biochemical. The settings on record: Kinase-Glo Plus ATP detection, read-out: IC50 against PI3K. The essentials: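 PI3Kα (50 nM solution) was reacted with 30 μM ATP and 45 μM PIP2 solutions, each in HEPES pH 7.4 with MgCl2 and DTT, for 2 h at room temperature. Remaining ATP was measured by Kinase-Glo Plus luminescence, and inhibition was derived from ATP consumed. IC50 was taken from curve fitting of the serial dilutions.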

The values below come from patent US8309546B2, “Morpholinopurine derivatives” (Daiichi Sankyo Company, Limited, priority 2008, dated 2012).

Structures are written as SMILES.

Sequence of PI3Kα (P42336 whole entry, species assumed): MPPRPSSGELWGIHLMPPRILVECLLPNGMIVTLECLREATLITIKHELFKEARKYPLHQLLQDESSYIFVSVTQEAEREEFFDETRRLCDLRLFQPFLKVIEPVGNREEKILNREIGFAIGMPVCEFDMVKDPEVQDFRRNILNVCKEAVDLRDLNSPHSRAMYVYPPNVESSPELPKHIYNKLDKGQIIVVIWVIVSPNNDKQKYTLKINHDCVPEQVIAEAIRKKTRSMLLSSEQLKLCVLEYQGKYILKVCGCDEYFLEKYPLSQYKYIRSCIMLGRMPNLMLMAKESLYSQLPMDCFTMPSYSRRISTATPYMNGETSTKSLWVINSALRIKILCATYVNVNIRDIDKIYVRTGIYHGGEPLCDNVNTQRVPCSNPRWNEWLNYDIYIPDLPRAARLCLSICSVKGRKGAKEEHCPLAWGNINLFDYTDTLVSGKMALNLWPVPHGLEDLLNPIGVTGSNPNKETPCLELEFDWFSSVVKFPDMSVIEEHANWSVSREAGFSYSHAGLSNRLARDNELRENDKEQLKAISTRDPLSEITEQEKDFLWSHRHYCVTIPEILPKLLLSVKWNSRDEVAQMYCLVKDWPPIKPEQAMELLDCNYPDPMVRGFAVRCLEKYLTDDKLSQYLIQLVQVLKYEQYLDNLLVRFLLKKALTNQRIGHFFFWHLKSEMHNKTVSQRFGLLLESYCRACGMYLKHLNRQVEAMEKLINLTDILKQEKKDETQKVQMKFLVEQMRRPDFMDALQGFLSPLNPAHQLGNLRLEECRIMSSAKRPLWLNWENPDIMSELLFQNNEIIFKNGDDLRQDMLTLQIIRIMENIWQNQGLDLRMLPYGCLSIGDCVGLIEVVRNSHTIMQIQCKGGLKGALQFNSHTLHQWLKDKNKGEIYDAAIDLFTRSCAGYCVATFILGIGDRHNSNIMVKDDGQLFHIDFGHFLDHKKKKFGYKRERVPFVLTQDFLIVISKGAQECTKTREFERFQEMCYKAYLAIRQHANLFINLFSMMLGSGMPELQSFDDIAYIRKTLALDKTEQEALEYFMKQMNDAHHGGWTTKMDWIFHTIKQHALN
Sequence of PI3Kα (P27986 whole entry partner, species assumed): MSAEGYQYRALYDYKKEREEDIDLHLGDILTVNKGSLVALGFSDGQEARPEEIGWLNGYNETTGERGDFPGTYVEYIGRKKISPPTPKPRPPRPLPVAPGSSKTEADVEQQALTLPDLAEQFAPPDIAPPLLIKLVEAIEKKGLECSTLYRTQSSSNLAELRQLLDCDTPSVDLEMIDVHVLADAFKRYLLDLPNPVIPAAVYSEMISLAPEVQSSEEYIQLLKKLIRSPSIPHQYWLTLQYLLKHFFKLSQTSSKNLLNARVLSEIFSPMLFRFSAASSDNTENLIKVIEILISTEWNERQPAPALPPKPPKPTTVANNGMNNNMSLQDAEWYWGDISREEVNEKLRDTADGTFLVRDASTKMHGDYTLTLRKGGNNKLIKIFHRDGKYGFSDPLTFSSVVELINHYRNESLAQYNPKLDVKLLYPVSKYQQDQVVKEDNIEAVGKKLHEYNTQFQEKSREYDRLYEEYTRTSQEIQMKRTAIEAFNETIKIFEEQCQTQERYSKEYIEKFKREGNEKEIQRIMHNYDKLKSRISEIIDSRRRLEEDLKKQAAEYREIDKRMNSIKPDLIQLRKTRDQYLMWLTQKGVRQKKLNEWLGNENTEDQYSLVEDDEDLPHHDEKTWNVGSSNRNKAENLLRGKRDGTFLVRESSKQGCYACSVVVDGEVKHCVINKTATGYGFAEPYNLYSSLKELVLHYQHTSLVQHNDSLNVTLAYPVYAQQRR

The compound `CC(=O)C(=O)N1CCN(c2nc3c(N4CCOCC4)nc(-c4cnc(N)nc4)nc3n2CC(F)(F)F)CC1` [Example 65, 1-{4-[2-(2-Aminopyrimidin-5-yl)-6-morpholin-4-yl-9-(2,2,2-trifluoroethyl)-9H-purin-8-yl]piperazin-1-yl}-1-oxoacetone] returned an inhibition at 10 mg/kg in test [1] of more than 90%. The GI50 in test [2] is not above 5000 nM. Besides, at PI3Kα, the IC50 is less than 10 nM.
For the compound `CN(C)C(=O)C(=O)N1CCN(c2nc3c(N4CCOCC4)nc(-c4cnc(N)nc4)nc3n2CC(F)(F)F)CC1` [Example 66, 2-{4-[2-(2-Aminopyrimidin-5-yl)-6-morpholin-4-yl-9-(2,2,2-trifluoroethyl)-9H-purin-8-yl]piperazin-1-yl}-N,N-dimethyl-2-oxoacetamide], the inhibition at 10 mg/kg in test [1] was 70 to 90%. In test [2], the GI50 was not above 5000 nM. Further, on PI3Kα, the IC50 is less than 10 nM.
`Nc1ncc(-c2nc(N3CCOCC3)c3nc(N4CCN(C(=O)CO)CC4)n(CC(F)(F)F)c3n2)cn1` [Example 67, 2-{4-[2-(2-Aminopyrimidin-5-yl)-6-morpholin-4-yl-9-(2,2,2-trifluoroethyl)-9H-purin-8-yl]piperazin-1-yl}-2-oxoethanol] gave an inhibition at 10 mg/kg in test [1] of 70 to 90%. In addition, the GI50 in test [2] was not above 5000 nM. The IC50 at PI3Kα is less than 10 nM.
Regarding `C[C@H](O)C(=O)N1CCN(c2nc3c(N4CCOCC4)nc(-c4cnc(N)nc4)nc3n2CC(F)(F)F)CC1` [Example 68, (2S)-1-{4-[2-(2-Aminopyrimidin-5-yl)-6-morpholin-4-yl-9-(2,2,2-trifluoroethyl)-9H-purin-8-yl]piperazin-1-yl}-1-oxopropan-2-ol], the inhibition at 10 mg/kg in test [1] is more than 90%. Also, in test [2], the GI50 is not above 5000 nM. For the same compound, the 50% inhibitory concentration (IC50) on PI3Kα lay in the range of 10 to 20 nM.
In turn, `C[C@H](O)CC(=O)N1CCN(c2nc3c(N4CCOCC4)nc(-c4cnc(N)nc4)nc3n2CC(F)(F)F)CC1` [Example 69, (2S)-4-{4-[2-(2-Aminopyrimidin-5-yl)-6-morpholin-4-yl-9-(2,2,2-trifluoroethyl)-9H-purin-8-yl]piperazin-1-yl}-4-oxobutan-2-ol] yielded an inhibition at 10 mg/kg in test [1] of more than 90%. Besides, in test [2], the GI50 is not above 5000 nM. The IC50 on PI3Kα was less than 10 nM.
The corresponding values for `C[C@@H](O)CC(=O)N1CCN(c2nc3c(N4CCOCC4)nc(-c4cnc(N)nc4)nc3n2CC(F)(F)F)CC1` [Example 70, (2R)-4-{4-[2-(2-Aminopyrimidin-5-yl)-6-morpholin-4-yl-9-(2,2,2-trifluoroethyl)-9H-purin-8-yl]piperazin-1-yl}-4-oxobutan-2-ol] are more than 90%, not above 5000 nM and 10 to 20 nM.
The corresponding values for `Nc1ncc(-c2nc(N3CCOCC3)c3nc(N4CCN(C=O)CC4)n(CC(F)(F)F)c3n2)cn1` [Example 71, 4-[2-(2-Aminopyrimidin-5-yl)-6-morpholin-4-yl-9-(2,2,2-trifluoroethyl)-9H-purin-8-yl]piperazine-1-carboaldehyde] are more than 90%, not above 5000 nM and less than 10 nM.
Regarding `CC[C@H]1CN(c2nc3c(N4CCOCC4)nc(-c4cnc(N)nc4)nc3n2CC(F)(F)F)CCN1C(C)=O` [Example 75, 5-{8-[(3S)-4-Acetyl-3-ethylpiperazin-1-yl]-6-morpholin-4-yl-9-(2,2,2-trifluoroethyl)-9H-purin-2-yl}pyrimidin-2-amine], the inhibition at 10 mg/kg in test [1] is more than 90%. Also, in test [2], the GI50 is not above 5000 nM. The IC50 on PI3Kα is less than 10 nM.
`CC[C@H]1CN(c2nc3c(N4CCOCC4)nc(-c4cnc(N)nc4)nc3n2CC(F)(F)F)CCN1S(C)(=O)=O` [Example 76, 5-{8-[(3S)-3-Ethyl-4-(methylsulfonyl)piperazin-1-yl]-6-morpholin-4-yl-9-(2,2,2-trifluoroethyl)-9H-purin-2-yl}pyrimidin-2-amine] yielded an inhibition at 10 mg/kg in test [1] of more than 90%. Moreover, the GI50 in test [2] was not above 5000 nM. Further, on PI3Kα, the IC50 is less than 10 nM.
The compound `CC[C@H]1CN(c2nc3c(N4CCOCC4)nc(-c4cnc(N)nc4)nc3n2CC(F)(F)F)CCN1C(=O)[C@H](C)O` [Example 77, (2S)-1-{(2S)-4-[2-(2-Aminopyrimidin-5-yl)-6-morpholin-4-yl-9-(2,2,2-trifluoroethyl)-9H-purin-8-yl]-2-ethylpiperazin-1-yl}-1-oxopropan-2-ol] gave an inhibition at 10 mg/kg in test [1] of more than 90%. Moreover, the GI50 in test [2] is not above 5000 nM. Besides, on PI3Kα, the IC50 was less than 10 nM.
Consider `CC[C@@H]1CN(c2nc3c(N4CCOCC4)nc(-c4cnc(N)nc4)nc3n2CC(F)(F)F)CCN1C(=O)[C@H](C)O` [Example 79], for which the inhibition at 10 mg/kg in test [1] is more than 90%. Also, in test [2], the GI50 is not above 5000 nM. Further, at PI3Kα, the IC50 was less than 10 nM.
The compound `CC(C)Cn1c(N2CCN(C(=O)C[C@@H](C)O)CC2)nc2c(N3CCOCC3)nc(-c3cnc(N)nc3)nc21` [Example 81, (2R)-4-{4-[2-(2-Aminopyrimidin-5-yl)-9-isobutyl-6-morpholin-4-yl-9H-purin-8-yl]piperazin-1-yl}-4-oxobutan-2-ol] returned an inhibition at 10 mg/kg in test [1] of more than 90%. Besides, in test [2], the GI50 is not above 5000 nM. The IC50 at PI3Kα is less than 10 nM.
The corresponding values for `CC(C)Cn1c(N2CCN(C(=O)C[C@H](C)O)CC2)nc2c(N3CCOCC3)nc(-c3cnc(N)nc3)nc21` [Example 82, (2S)-4-{4-[2-(2-Aminopyrimidin-5-yl)-9-isobutyl-6-morpholin-4-yl-9H-purin-8-yl]piperazin-1-yl}-4-oxobutan-2-ol] are more than 90%, not above 5000 nM and 10 to 20 nM.
With `CC(C)Cn1c(N2CCN(C(=O)C[C@@H](C)O)[C@@H](C)C2)nc2c(N3CCOCC3)nc(-c3cnc(N)nc3)nc21` [Example 83, (2R)-4-{(2S)-4-[2-(2-Aminopyrimidin-5-yl)-9-isobutyl-6-morpholin-4-yl-9H-purin-8-yl]-2-methylpiperazin-1-yl}-4-oxobutan-2-ol], in test [1], the inhibition at 10 mg/kg was more than 90%. Besides, the GI50 in test [2] was not above 5000 nM. Besides, on PI3Kα, the IC50 lay within 10 to 20 nM.
As for `CC(C)Cn1c(N2CCN(C(=O)C[C@@H](C)O)[C@H](C)C2)nc2c(N3CCOCC3)nc(-c3cnc(N)nc3)nc21` [Example 84, (2R)-4-{(2R)-4-[2-(2-Aminopyrimidin-5-yl)-9-isobutyl-6-morpholin-4-yl-9H-purin-8-yl]-2-methylpiperazin-1-yl}-4-oxobutan-2-ol], the inhibition at 10 mg/kg in test [1] was more than 90%. Besides, the GI50 in test [2] is not above 5000 nM. For the same compound, the half-inhibitory concentration (IC50) on PI3Kα is less than 10 nM.
As for `CC(C)Cn1c(N2CCN(C(=O)C[C@H](C)O)[C@@H](C)C2)nc2c(N3CCOCC3)nc(-c3cnc(N)nc3)nc21` [Example 85, (2S)-4-{(2S)-4-[2-(2-Aminopyrimidin-5-yl)-9-isobutyl-6-morpholin-4-yl-9H-purin-8-yl]-2-methylpiperazin-1-yl}-4-oxobutan-2-ol], in test [1], the inhibition at 10 mg/kg was more than 90%. Besides, the GI50 in test [2] is not above 5000 nM. Further, the 50% inhibitory concentration (IC50) at PI3Kα was less than 10 nM.
Compound `CC(C)Cn1c(N2CCN(C(=O)C[C@H](C)O)[C@H](C)C2)nc2c(N3CCOCC3)nc(-c3cnc(N)nc3)nc21` [Example 86, (2S)-4-{(2R)-4-[2-(2-Aminopyrimidin-5-yl)-9-isobutyl-6-morpholin-4-yl-9H-purin-8-yl]-2-methylpiperazin-1-yl}-4-oxobutan-2-ol] yielded an inhibition at 10 mg/kg in test [1] of more than 90%. Moreover, the GI50 in test [2] was not above 5000 nM. For the same compound, on PI3Kα, the IC50 was less than 10 nM.
In test [1], `C[C@H](O)C(=O)N1CCN(c2nc3c(N4CCOCC4)nc(-c4cnc(N)nc4)nc3n2CC2CC2)CC1` [Example 88, (2S)-1-{4-[2-(2-Aminopyrimidin-5-yl)-9-(cyclopropylmethyl)-6-morpholin-4-yl-9H-purin-8-yl]piperazin-1-yl}-1-oxopropan-2-ol] showed an inhibition at 10 mg/kg of 70 to 90%. Besides, the GI50 in test [2] was not above 5000 nM. Moreover, the IC50 at PI3Kα is less than 10 nM.
Regarding `CC(C)Cn1c(N2CCN(C(=O)CO)CC2)nc2c(N3CCOCC3)nc(-c3cnc(N)nc3)nc21` [Example 89, 2-{4-[2-(2-Aminopyrimidin-5-yl)-9-isobutyl-6-morpholin-4-yl-9H-purin-8-yl]piperazin-1-yl}-2-oxoethanol], in test [1], the inhibition at 10 mg/kg lay in the range of 70 to 90%. The GI50 in test [2] was not above 5000 nM. The IC50 at PI3Kα is less than 10 nM.
In test [1], `CC(C)Cn1c(N2CCN(C=O)CC2)nc2c(N3CCOCC3)nc(-c3cnc(N)nc3)nc21` [Example 90, 4-[2-(2-Aminopyrimidin-5-yl)-9-isobutyl-6-morpholin-4-yl-9H-purin-8-yl]piperazine-1-carboaldehyde] registered an inhibition at 10 mg/kg of more than 90%. In addition, in test [2], the GI50 was not above 5000 nM. Besides, the IC50 on PI3Kα lay within 10 to 20 nM.

A word on the inhibition: it is how much of the control response was suppressed. Low values mean little suppression, high ones strong suppression. As usually defined, the IC50 is the midpoint of a concentration-inhibition curve.
